Numbers after ± are expanded uncertainties.
Tests used:
[1] = 100 kPa, Liquid
[2] = xn = mol fraction of the nth substance listed; conditions: 278.15 K; 100 kPa; Liquid; x2 = 0

Row | Compound | mass density ([1]; 278.15 K) | mass density ([1]; 288.15 K) | mass density ([1]; 293.15 K) | mass density ([1]; 298.15 K) | mass density ([1]; 308.15 K) | mass density [2]
1 | CCNCC [diethylamine] | 719.94 ± 1.2 kg/m3 | 709.52 ± 1.2 kg/m3 | 704.59 ± 1.2 kg/m3 | 698.97 ± 1.2 kg/m3 | 688.29 ± 1.3 kg/m3 | –
2 | O [water] + CCNCC | – | – | – | – | – | 999.964 ± 0.25 kg/m3

Reference: the NIST ThermoML archive (doi:10.1016/j.jct.2004.07.008)
